Columns and labels:
Experiment in all cases: relative viability (nuclei count vs DMSO), 5 days (fraction); higher = more cells survive
[1] = compound: C(C(=O)C(=O)O)Br [Bromopyruvate] + O=C(CCCCCCC(=O)Nc1ccccc1)NO [Vorinostat] (partner 1 µM)
Procedure, shortened: (§1)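 Values are medians from duplicate plates. Each reflects relative viability, defined as the nuclei count of treated wells over that of vehicle wells. Lung cancer cell lines in 1536-well plates were pin-tool dosed one day after seeding with one drug alone or with a fixed anchor-drug dose plus five library-drug doses (not always all listed) in √10 steps, then fixed, stained and imaged at 4× after 5 days.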

Bicalutamide + Olaparib = compound: CC(O)(CS(=O)(=O)c1ccc(F)cc1)C(=O)Nc1ccc(C#N)c(C(F)(F)F)c1 [Bicalutamide] + O=C(c1cc(Cc2n[nH]c(=O)c3ccccc23)ccc1F)N1CCN(C(=O)C2CC2)CC1 [Olaparib] (partner 8 µM)
Procedure, shortened: as §1

[2] = compound: CC(O)(CS(=O)(=O)c1ccc(F)cc1)C(=O)Nc1ccc(C#N)c(C(F)(F)F)c1 [Bicalutamide] + CCNC(=O)c1noc(-c2cc(C(C)C)c(O)cc2O)c1-c1ccc(CN2CCOCC2)cc1 [Luminespib] (partner 0.01 µM)
Procedure, shortened: as §1

[3] = compound: CC(O)(CS(=O)(=O)c1ccc(F)cc1)C(=O)Nc1ccc(C#N)c(C(F)(F)F)c1 [Bicalutamide] + Cc1cc(Nc2cc(N3CCN(C)CC3)nc(Sc3ccc(NC(=O)C4CC4)cc3)n2)n[nH]1 [Tozasertib] (partner 0.1 µM)
Procedure, shortened: as §1

| Cell Line | relative viability ([1]; first compound 1 µM) | relative viability ([1]; first compound 3.162 µM) | relative viability ([1]; first compound 10 µM) | relative viability ([1]; first compound 31.62 µM) | relative viability ([1]; first compound 100 µM) | relative viability (Bicalutamide + Olaparib; first compound 0.08 µM) | relative viability (Bicalutamide + Olaparib; first compound 0.253 µM) | relative viability (Bicalutamide + Olaparib; first compound 0.8 µM) | relative viability (Bicalutamide + Olaparib; first compound 2.53 µM) | relative viability ([2]; first compound 0.08 µM) | relative viability ([2]; first compound 0.253 µM) | relative viability ([2]; first compound 0.8 µM) | relative viability ([2]; first compound 2.53 µM) | relative viability ([3]; first compound 0.08 µM) | relative viability ([3]; first compound 0.253 µM) | relative viability ([3]; first compound 0.8 µM) | relative viability ([3]; first compound 2.53 µM) |
| --- | --- | --- | --- | --- | --- | --- | --- | --- | --- | --- | --- | --- | --- | --- | --- | --- | --- |
| NCI-H2126 | 0.82 | 0.832 | 0.886 | 0.829 | 0.639 | 0.989 | 0.913 | 1.01 | 0.859 | 0.923 | 0.904 | 1.16 | 0.915 | 0.939 | 0.811 | 0.944 | 0.75 |
| NCI-H1437 | 0.918 | 0.672 | 0.74 | 0.694 | 0.529 | 0.613 | 0.614 | 0.63 | 0.613 | 1.17 | 1.15 | 1.1 | 1.05 | 0.399 | 0.423 | 0.448 | 0.403 |
| NCI-H2342 | 0.807 | 0.806 | 0.7 | 0.622 | 0.684 | 0.524 | 0.501 | 0.491 | 0.44 | 0.682 | 0.752 | 0.746 | 0.729 | 0.496 | 0.564 | 0.5 | 0.456 |
| ChaGo-K-1 | 0.818 | 0.755 | 0.879 | 0.703 | 0.67 | 0.4 | 0.423 | 0.466 | 0.446 | 0.704 | 0.717 | 0.513 | 0.622 | 0.219 | 0.238 | 0.212 | 0.292 |
| NCI-H661 | 0.767 | 0.798 | 0.779 | 0.712 | 0.712 | 0.815 | 0.768 | 0.74 | 0.779 | 0.938 | 0.94 | 0.928 | 0.954 | 0.367 | 0.355 | 0.362 | 0.359 |
| COR-L23 | 0.381 | 0.473 | 0.432 | 0.387 | 0.255 | 0.319 | 0.309 | 0.294 | 0.293 | 0.718 | 0.699 | 0.764 | 0.649 | 0.253 | 0.196 | 0.172 | 0.179 |
| COR-L 105 | 0.708 | 0.68 | 0.645 | 0.665 | 0.411 | 0.847 | 0.777 | 0.632 | 0.662 | 1.04 | 0.721 | 0.911 | 0.652 | 0.391 | 0.348 | 0.408 | 0.387 |
| LK-2 | 0.333 | 0.203 | 0.218 | 0.297 | 0.165 | 0.629 | 0.524 | 1.12 | 0.621 | 0.161 | 0.167 | 0.175 | 0.21 | 0.19 | 0.178 | 0.152 | 0.179 |
| 201T | 0.967 | 1.01 | 0.984 | 0.912 | 0.971 | 0.881 | 0.885 | 0.846 | 0.877 | 1.06 | 1.03 | 1.02 | 1.1 | 1.01 | 0.917 | 0.962 | 0.793 |
| HCC-44 | 1.12 | 1.04 | 1.07 | 1.1 | 1.13 | 1.01 | 1.02 | 1.02 | 1.01 | 0.907 | 0.97 | 1.44 | 1.15 | 1.06 | 0.874 | 0.746 | 1.12 |
| NCI-H647 | 0.559 | 0.724 | 0.399 | 0.51 | 0.334 | 0.571 | 0.384 | 0.591 | 0.381 | 0.126 | 0.114 | 0.255 | 0.112 | 0.3 | 0.264 | 0.293 | 0.191 |
| H3255 | 0.941 | 0.781 | 0.771 | 0.763 | 0.85 | 0.564 | 0.558 | 0.554 | 0.551 | 0.827 | 0.857 | – | 0.813 | 0.743 | 0.439 | – | 0.604 |
| NCI-H650 | 0.438 | 0.487 | 0.411 | 0.441 | 0.392 | 0.373 | 0.395 | 0.401 | 0.396 | 0.822 | 0.793 | 0.947 | 0.792 | 0.792 | 0.747 | 0.885 | 0.653 |
| NCI-H2085 | 0.769 | 0.81 | 0.798 | 0.764 | 0.862 | 0.758 | 0.865 | 0.773 | 0.781 | 0.59 | 0.587 | 0.459 | 0.448 | 0.913 | 0.81 | 0.805 | 0.804 |
| NCI-H2347 | 0.645 | 0.541 | 0.542 | 0.495 | 0.473 | 0.518 | 0.555 | 0.62 | 0.54 | 0.357 | 0.399 | 0.263 | 0.673 | 0.625 | 0.511 | 0.597 | 0.504 |
| NCI-H1944 | 0.592 | 0.647 | 0.582 | 0.568 | 0.654 | 0.424 | 0.388 | 0.46 | 0.375 | 0.759 | 0.66 | 0.845 | 0.779 | 0.246 | 0.232 | 0.256 | 0.257 |
| NCI-H1793 | 0.792 | 0.914 | 0.794 | 0.727 | 0.634 | 0.799 | – | 1.38 | 0.744 | 0.198 | 0.364 | 0.203 | 0.165 | 0.36 | 0.257 | 0.313 | 0.309 |
| NCI-H596 | 0.572 | 0.633 | 0.628 | 0.584 | 0.757 | 0.604 | 0.767 | 0.799 | 0.844 | 1.08 | 0.945 | 1.28 | 1.14 | 0.897 | 0.82 | 0.998 | 0.989 |
| NCI-H520 | 0.543 | 0.745 | 0.706 | 0.731 | 0.469 | 0.342 | 0.31 | 0.335 | 0.337 | 0.232 | 0.22 | 0.274 | 0.205 | 0.433 | 0.414 | 0.539 | 0.458 |
